# Data as given in patent US20080057529A1, “Method for Identifying Histone Deacetylase Inhibitors” (priority 2003, published 2008).
# pEC50: −log10 of the molar value.
# Assays:
# Assay type in all cases: cell-based, human
# p21 minimal promoter [1] = experiment: Fluorometric β-lactamase activity assay in stable HeLa clone 1.17 (p21m-BLA)
# Description: All clones were screened for the presence of stably and functional integrated copies of the p21m-BLA reporter gene transcription cassette by performing a fluorometric β-lactamase activity assay after treatment with the HDAC inhibitor Apicidin at a concentration of 1 μM (saturating dose representing 100% of Bla gene activation, i.e., 100% of HDAC inhibition). A 100 μL aliquot of cells for each stable transformant in complete DMEM was plated into a well of a 96 well plate at about 36,000 cells per well for treatment with 1 μM Apicidin (saturating dose) and a 100 μL aliquot of cells was plated into a well of a 96 well plate at 24,000 cells per well for treatment with DMSO (vehicle control). […] After 4 hours, 25 μL of complete DMEM containing Apicidin at 5× final concentration or DMSO (5%) was added to each of the wells. The cells were then grown at 37° C., 5% CO2 for about 12 to 16 hours. Afterwards, the medium was removed and 100 μL of DMEM without serum and 25 μL of FRET labeled CCF2-AM Bla substrate diluted in the appropriate buffer according to the manufacturer recommendations were each added to the cells to give a final concentration of 1 μM CCF2-AM.
# CMV promoter [2] = experiment: Luc activity of co-transfected pCMV-Luc control plasmid in HeLa cells; conditions: for RLU norm mean / RLU/μg: Table 5; for RLU/μg: luciferase control plasmid not named
# p21 minimal promoter [3] = experiment: Transient transfection of HeLa cells with p21m-SEAP reporter plasmid, SEAP activity; conditions: Apicidin 1 μM, TSA 300 nM; for SEAP (10 min) / SEAP norm-bckg/RLU norm: Table 5
# Description: To determine whether the p21 minimal promoter was responsive to HDAC inhibitors, a reporter plasmid containing the secreted alkaline phosphatase gene (SEAP) operably linked to the p21 minimal promoter (−182 through +25), pcDNA3-21m-SEAP, was tested in transient transfection experiments of HeLa cells. […] All data summarized in Tables 4 through 7 were obtained by normalizing the total amount of transfected DNA to 2.1 μg using a promoterless plasmid.
# CMV promoter [4] = experiment: Transient transfection of HeLa cells with CMV-BLA (pCMV-BLA) reporter plasmid, Bla staining (blue cells)
# Description: (§1) The p21m-BLA reporter plasmid was tested in transient transfection experiments of HeLa cells to evaluate the responsiveness of the minimal p21 promoter and the Bla reporter system to known HDAC inhibitors. In the first two transfection experiments, HeLa cells were transfected with 1 or 2 μg of Bla reporter plasmid containing either p21 minimal promoter (p21m-BLA) or CMV promoter (CMV-BLA) and 0.1 μg of pCMV-Luc or pRSV-Luc control plasmids. Different DNA-FUGENE transfection reagent ratios were tested (FUGENE is available from Roche Applied Science, Indianapolis, Ind.). […] Data are summarized below in Tables 1 and 2.
# (§2) The percentage of β-lactamase-positive cells increased with time independent of the presence of HDAC inhibitors and was constantly higher with p21m-BLA than with pCMV-BLA.
# In light of the above, the lack of apparent Bla activation in the above transfection experiments might have been due to the high sensitivity of the method. Therefore, transient transfections in which an accurate titration of the reporter plasmid DNA were performed. The titration of the reporter plasmid included using amounts lower than was used above. […] The transient transfections were repeated and the result confirmed (Table 7).
# [5] = tested on: HDAC activity (acetylated histone H3); experiment: Acetylation of core histones (inhibition of HDAC activity) in HeLa cells, acetylated histone H3 immunoblot; conditions: HeLa cells, 13 hour treatment, immunoblot densitometry; read-out: AcH3 EC50
# Description: (§3) Induction of endogenous p21 and acetylation of core histones (inhibition of HDAC activity) was as follows. Dose-response experiments were performed in HeLa cells with different classes of known HDAC inhibitors. […] An α-tubulin-specific antibody (Sigma, St. Louis, Mo.; catalog number: T9026) was used as an internal standard. Quantitative data were obtained by densitometric analysis of X-ray films and were normalized for the internal standard values.
# endogenous p21 = experiment: Induction of endogenous p21 in HeLa cells, immunoblot; conditions: 13 hour treatment, immunoblot densitometry, read-out: Endogenous p2 EC50
# Description: as §3
# HeLa cells = experiment: Cell death in transiently transfected HeLa cells
# Description: as §1, §2
# [6] = Table 2, 400 nM, 12 hours, 1 μg CMV-BLA + 3 μL F + CMV-luc
# [7] = Table 3, 2 μg pCMV-BLA + 0.1 μg pCMV-Luc, 12 hr treatment, TSA 300 nM, Apicidin 1 μM
# [8] = Table 3, 2 μg pCMV-BLA + 0.1 μg pCMV-Luc, 24 hr treatment, TSA 300 nM, Apicidin 1 μM
# [9] = Apicidin 1 μM, TSA 300 nM, P21m-SEAP 0 μg DNA
# [10] = Apicidin 1 μM, TSA 300 nM, P21m-SEAP 0.1 μg DNA
# [11] = Apicidin 1 μM, TSA 300 nM, P21m-SEAP 0.5 μg DNA
# [12] = Apicidin 1 μM, TSA 300 nM, P21m-SEAP 1 μg DNA
smiles,measurement,setting,value
"CC(/C=C/C(=O)NO)=C\[C@@H](C)C(=O)c1ccc(N(C)C)cc1 [TSA, Trichostatin A]",reversion of Bla induction after FACS sorting,"p21 minimal promoter [1]; clone 1.17, 600 nM for 13 hr, then 7 days in culture, DMSO-treated samples",Complete reversion
same,reversibility of induction of BlaM transcription,"p21 minimal promoter [1]; clone 1.17, 300 or 600 nM for 13 hours, 48 hours after removal",complete shut down of β-lactamase activity
same,pEC50,"p21 minimal promoter [1]; clone 1.17, about 13 hours treatment, means of 3 to 4 independent experiments, read-out: p21m-Bla EC50",7.05
same,RLU/mg,"CMV promoter [2]; Table 1, 400 nM, 12 hours, 2 μg CMV-BLA + 6 μL F, control plasmid not given",14934 RLU/mg
same,RLU/mg,"CMV promoter [2]; Table 1, 400 nM, 12 hours, 2 μg p21m-BLA + 6 μL F, control plasmid not given",50773.9 RLU/mg
same,RLU/mg,"CMV promoter [2]; Table 1, 400 nM, 12 hours, 2 μg p21m-BLA + 10 μL F, control plasmid not given",22499.2 RLU/mg
same,RLU/mg,CMV promoter [2]; [6],14928.8 RLU/mg
same,RLU/mg,"CMV promoter [2]; Table 2, 400 nM, 12 hours, 1 μg p21m-BLA + 3 μL F + CMV-luc",47709.8 RLU/mg
same,RLU/mg,"CMV promoter [2]; Table 3, 2 μg p21m-BLA + 0.1 μg pCMV-Luc, 6 hr treatment, TSA 300 nM, Apicidin 1 μM",85379 RLU/mg
same,RLU/mg,"CMV promoter [2]; Table 3, 2 μg p21m-BLA + 0.1 μg pCMV-Luc, 12 hr treatment, TSA 300 nM, Apicidin 1 μM",248656.9 RLU/mg
same,RLU/mg,"CMV promoter [2]; Table 3, 2 μg p21m-BLA + 0.1 μg pCMV-Luc, 24 hr treatment, TSA 300 nM, Apicidin 1 μM",110180.6 RLU/mg
same,RLU/mg,"CMV promoter [2]; Table 3, 2 μg pCMV-BLA + 0.1 μg pCMV-Luc, 6 hr treatment, TSA 300 nM, Apicidin 1 μM",12579.8 RLU/mg
same,RLU/mg,CMV promoter [2]; [7],33592.3 RLU/mg
same,RLU/mg,CMV promoter [2]; [8],22233.7 RLU/mg
same,RLU norm mean,CMV promoter [2]; [9],0.97
same,RLU/μg,CMV promoter [2]; [9],"94,973.90 RLU/μg"
same,RLU norm mean,CMV promoter [2]; [10],0.97
same,RLU/μg,CMV promoter [2]; [10],"95,526.00 RLU/μg"
same,RLU/μg,"CMV promoter [2]; Apicidin 1 μM, TSA 300 nM, P21m-SEAP 0.2 μg DNA","116,091.50 RLU/μg"
same,RLU norm mean,CMV promoter [2]; [11],0.85
same,RLU/μg,CMV promoter [2]; [11],"83,237.58 RLU/μg"
same,RLU norm mean,CMV promoter [2]; [12],0.89
same,RLU/μg,CMV promoter [2]; [12],"87,194.70 RLU/μg"
same,RLU/μg,"CMV promoter [2]; Apicidin 1 μM, TSA 300 nM, P21m-SEAP 2 μg DNA","111,592.45 RLU/μg"
same,induction of SEAP (maximum),p21 minimal promoter [3]; p21m-SEAP promoter titration in HeLa,up to 26 fold
same,SEAP (10 min),p21 minimal promoter [3]; P21m-SEAP 0 μg DNA (total DNA 2.1 μg),2313
same,SEAP norm-bckg/RLU norm,p21 minimal promoter [3]; P21m-SEAP 0.1 μg DNA,"6,558.72"
same,SEAP (10 min),p21 minimal promoter [3]; P21m-SEAP 0.1 μg DNA (total DNA 2.1 μg),4405
same,SEAP norm-bckg/RLU norm,p21 minimal promoter [3]; P21m-SEAP 0.2 μg DNA,"11,855.92"
same,SEAP (10 min),p21 minimal promoter [3]; P21m-SEAP 0.2 μg DNA (total DNA 2.1 μg),9328
same,SEAP norm-bckg/RLU norm,p21 minimal promoter [3]; P21m-SEAP 0.5 μg DNA,"25,471.82"
same,SEAP (10 min),p21 minimal promoter [3]; P21m-SEAP 0.5 μg DNA (total DNA 2.1 μg),15743
same,SEAP norm-bckg/RLU norm,p21 minimal promoter [3]; P21m-SEAP 1 μg DNA,"108,713.07"
same,SEAP (10 min),p21 minimal promoter [3]; P21m-SEAP 1 μg DNA (total DNA 2.1 μg),50626
same,SEAP norm-bckg/RLU norm,p21 minimal promoter [3]; P21m-SEAP 2 μg DNA,"201,678.57"
same,SEAP (10 min),p21 minimal promoter [3]; P21m-SEAP 2 μg DNA (total DNA 2.1 μg),109998
same,% Blue cells,"CMV promoter [4]; Table 1, 400 nM, 12 hours induction, 1 μg CMV-BLA + 3 μL F",5%
same,% Blue cells,"CMV promoter [4]; Table 1, 400 nM, 12 hours induction, 2 μg CMV-BLA + 6 μL F",15-20%
same,% Blue cells,"CMV promoter [4]; Table 2, 400 nM, 12 hours induction, 1 μg CMV-BLA + 3 μL F",5%
same,% Blue cells,"CMV promoter [4]; Table 2, 400 nM, 12 hours induction, 2 μg CMV-BLA + 6 μL F",5%
same,% Blue cells,CMV promoter [4]; [6],5%
same,% Blue cells,"CMV promoter [4]; Table 2, 400 nM, 12 hours, 1 μg CMV-BLA + 3 μL F + RSV-luc",7%
same,% Blue cells,"CMV promoter [4]; Table 2, 400 nM, 12 hours, 2 μg CMV-BLA + 6 μL F + CMV-luc",7%
same,% Blue cells,"CMV promoter [4]; Table 2, 400 nM, 12 hours, 2 μg CMV-BLA + 6 μL F + RSV-luc",7%
same,% Blue cells,CMV promoter [4]; [7],4-5%
same,% Blue cells,CMV promoter [4]; [8],15%
same,pEC50,[5],6.89
same,pEC50,endogenous p21,6.72
same,cells dead after treatment,"HeLa cells; 400 nM, 12 hours induction, transfected HeLa cells, both experiments",approximately 50%
same,"cell death at longer incubation times, compared with Apicidin","HeLa cells; 12 and 24 hours, TSA 300 nM vs Apicidin 1 μM",higher fraction of cells died
same,Cell-death,"HeLa cells; after 6 hours, TSA 300 nM, Apicidin 1 μM, transfected HeLa cells",not visible
